Results on three compounds are retold here after patent US9723989B2, “Ex vivo motility contrast imaging” (Purdue Research Foundation, priority 2015, dated 2017).

This assay relates to DLD-1 tumor spheroid. Briefly: Biodynamic imaging / tissue dynamics spectroscopy, combined (Het, Div) metric of drug response. The class given is cell-based. The conditions noted are these: per-pixel TDS drug-response spectrograms, FIG. 14, FIG. 15. From the text: There are two light paths in the optical coherence imaging system. The laser source provides light which is intensity-controlled by the neutral density filter and size-controlled by lenses L1 and L2. Light is communicated through a half-wave plate, and is then communicated through a polarizing beam splitter (PBS1) which generates an object path and a reference path. Lenses L3 and L4 expand the reference beam, and lens L5 performs the Fourier transform of the back-scattered dynamic speckle from a target. The wave plates (half-wave plate and quarter-wave plate) and the PBS2 ensure most of the laser power is in the object beam, and most of the back-scattered signal reaches the charge coupled device (CCD). The target is often a multicellular tumor spheroid, but can be any living biological specimen that is sufficiently immobilized, such as living tissue obtained by surgical biopsy or by needle biopsy. In TDS experiments, the images are captured at a fixed-depth (usually the mid-plane of the tumor tissue). For example, if the tumor spheroid has a diameter of 500 microns, the images captured by the CCD camera are the Fourier Domain back-scattered dynamic speckle holograms at the fixed depth of 250 microns in the tumor spheroid. Conversely, sections from multiple depths can be acquired to obtain stacks of images that are reconstructed into three-dimensional optical coherence volumetric images. In each 4 min interval, 2 acquisition rates are applied. First 200 images are captured at 25 fps; then another 100 images are captured at 0.5 fps. Thus after combining the high frequency data and the low frequency data together, in each 4 min interval (each data set), the spectrum frequency range is from 0.005 Hz to 12.5 Hz across more than 3 orders of magnitude.
The high-frequency acquisition generates a series of image frames in which the speckle varies in intensity from frame to frame. These intensities are analyzed using a Fourier transform to generate a high-frequency spectrum. The low-frequency acquisition similarly generates a low-frequency spectrum. These high- and low-frequency spectra overlap over a frequency range. A stitching algorithm is performed that combined the high- and low-frequency spectra into a single broad-band spectrum. This spectrum relates to the 300 images and constitutes one time-point spectrum. The process is repeated to generate a series of time-point spectra.
The outcome of the heterogeneity sampling can be encapsulated in a small number of metrics that are communicated to the operator. […]
An example of spatial non-uniformity is shown in FIG. 14 for the Raf inhibitor drug Sorafenib applied to a DLD-1 tumor spheroid. […] These spectrograms were analyzed for intensity and for spectral content. […]

Consider `CC(=O)O[C@H]1C(=O)[C@@]2(C)[C@H]([C@H](OC(=O)c3ccccc3)[C@]3(O)C[C@H](OC(=O)[C@H](O)[C@@H](NC(=O)c4ccccc4)c4ccccc4)C(C)=C1C3(C)C)[C@]1(OC(C)=O)CO[C@@H]1C[C@@H]2O` [taxol], for which the “Diversity (Div) - phenotypic diversity, difference in spectrogram features / spectral content” value is “spectral content appears the same for core and shell”; the “Heterogeneity (Het) - how spatially uniform is the response” value (from here on “Heterogeneity (Het)”) is given as “high spatial heterogeneity”.
As to `CC(C)[C@@H]1NC(=O)[C@H](C)OC(=O)[C@@H](C(C)C)NC(=O)[C@@H](C(C)C)OC(=O)[C@H](C(C)C)NC(=O)[C@H](C)OC(=O)[C@@H](C(C)C)NC(=O)[C@@H](C(C)C)OC(=O)[C@H](C(C)C)NC(=O)[C@H](C)OC(=O)[C@@H](C(C)C)NC(=O)[C@@H](C(C)C)OC1=O` [valinomycin], the “Heterogeneity (Het)” value was “One of the most uniform”.
Regarding `CNC(=O)c1cc(Oc2ccc(NC(=O)Nc3ccc(Cl)c(C(F)(F)F)c3)cc2)ccn1` [Sorafenib], the “Heterogeneity (Het)” value turned out to be 0.83.
